According to PubChem BioAssay (NCI):
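Five concentrations, 48 hours, 96-well plates. GI50 marks 50% less growth. At the TGI there is no net growth.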

Key:
Assay in all cases: DTP human tumour cell line panel, 48 h
A498 renal = test system: A498 renal
EKVX NSCLC = test system: EKVX NSCLC
HS 578T breast = test system: HS 578T breast
SF-539 CNS = test system: SF-539 CNS
SK-MEL-28 melanoma = test system: SK-MEL-28 melanoma
SK-MEL-5 melanoma = test system: SK-MEL-5 melanoma
SNB-75 CNS = test system: SNB-75 CNS
T-47D breast = test system: T-47D breast
TK-10 renal = test system: TK-10 renal
U251 CNS = test system: U251 CNS

Row | SMILES | GI50 (A498 renal) [µM] | TGI (A498 renal) [µM] | GI50 (EKVX NSCLC) [µM] | TGI (EKVX NSCLC) [µM] | GI50 (HS 578T breast) [µM] | TGI (HS 578T breast) [µM] | GI50 (SF-539 CNS) [µM] | TGI (SF-539 CNS) [µM] | GI50 (SK-MEL-28 melanoma) [µM] | TGI (SK-MEL-28 melanoma) [µM] | GI50 (SK-MEL-5 melanoma) [µM] | TGI (SK-MEL-5 melanoma) [µM] | GI50 (SNB-75 CNS) [µM] | TGI (SNB-75 CNS) [µM] | GI50 (T-47D breast) [µM] | TGI (T-47D breast) [µM] | GI50 (TK-10 renal) [µM] | TGI (TK-10 renal) [µM] | GI50 (U251 CNS) [µM] | TGI (U251 CNS) [µM]
1 | CN(C)c1ccc(/C=C/C(=O)c2ccc(Nc3nc(Nc4ccc(F)cc4)nc(Nc4ccc(Cl)cc4)n3)cc2)cc1 | 2.97 | 18.1 | 8.21 | > 100 | 4.12 | 49.6 | 9.58 | 27.2 | 3.88 | 52.7 | 2 | 10.9 | 9 | 38.9 | 3.33 | 45.2 | 11.3 | 81.3 | 7.66 | 70.6
2 | CCCC1C2=C(C(=O)OC2=O)C2C(CC)CC3=C(C(=O)OC3=O)C12 (centres undefined) |  | > 100 |  | > 100 |  | > 100 |  | > 100 |  | > 100 |  | > 100 |  | > 100 |  | > 100 |  | > 100 |  | > 100
3 | Cc1nc2cc(NC(=O)CN3CCN(CCN4C(=O)c5cccc6cccc(c56)C4=O)CC3)ccc2s1 | 5.63 | 38.3 | 7.88 | > 100 | 6.53 | 52.5 | 7.59 | > 100 | 11.1 | 23.1 | 2.73 | 10.9 | 3.51 | 21.4 | 3.07 | 17.9 | 7.91 | 21.7 | 4.37 | 18.9
4 | CCS(=O)(=O)Nc1ccc(Oc2ccc(F)cc2F)c(-c2cn(C)c(=O)c3[nH]ccc23)c1 | 0.157 | 4.01 | 0.196 | 31.9 | < 0.0183 | 36.5 | 0.0135 | 16.1 | 1.64 | 21 | 0.0727 | 7.29 | < 0.01 | 0.986 | 0.0253 | 30.1 | < 0.01 | 1.25 | 0.293 | 16.8
5 | Cc1ccc(SCN2CCCCC2)cc1 (tested in a mixture with another compound) |  | 14.7 |  | 39.2 |  | 37.1 |  |  |  | 29.7 |  | 12.5 |  | 22.5 |  | > 100 |  | 45.3 |  | 23.2
6 | C#Cc1cccc(NC(=O)Nc2cccc(NC(=O)CCl)c2)c1 | 1.22 | > 82.5 | > 82.5 | > 82.5 | 21.2 | > 82.5 | 14 | 27.8 | > 82.5 | > 82.5 | 15.7 | 36.2 | 8.67 | > 82.5 | 32.1 | > 82.5 | 38 | > 82.5 | 16.4 | 39.3
7 | CCN(CC)CCC(CNc1c2ccc(Cl)cc2nc2ccc(OC)cc12)c1ccccc1 (centres undefined) | 1.4 | 2.75 | 2.32 | 8.3 | 1.95 | 5.44 | 1.49 | 3.16 | 1.84 | 3.27 | 1.7 | 3.11 | 1.49 | 2.83 | 2.25 | 4.96 | 0.915 | 2.8 | 1.56 | 3.21
